Residues, ends and D or L forms follow the SMILES beside them.
Assays:
[1] = tested on: rhinovirus type 1A; assay: plaque inhibition assay; assay type: cell-based, Human rhinovirus type 1A; conditions: HeLa cells, concentration at which activity was noted
Experimental: (§1) One assay, known as a viral cleavage assay, involves comparison of patterns of protein synthesis (as visualized by incorporation of labeled amino acids) in virus-infected HeLa cells grown in the presence and absence of a selected test compound. A second assay, known as a plaque inhibition assay, involves an assessment of the effects of test compounds upon the infectivity of virus in agar-overlaid cell cultures. Toxic effects of a test compound, if any, will also be observed during the incubation period of the plaque inhibition assay. Both assays are described in greater detail below.
In this assay, cultured HeLa cells were grown to confluency in 60 mm plastic petri dishes. Each culture was then infected with approximately 300 plaque-forming units of virus. Human rhinovirus type 1A was used in the test reported below. The virus employed in this experiment was allowed to absorb to the cells for 30 minutes at 34.5°.
The compound tested was dissolved in ethanol at a concentration 100 times greater than the highest concentration to be tested. The resulting solution was then diluted 1:100 into a solution of McCoy's medium containing 5% heat-inactivated fetal calf serum and 0.38% agar. Two-fold dilutions were then made into agar medium. […]

[2] = tested on: human HeLa-O cells; assay type: cell-based
Experimental: as §1
When plaques in control cultures were large enough to be observed, yet still relatively discrete, all cultures were stained with 1% crystal violet. Plaques appeared as clear areas in a deep purple field of uninfected cells.

[3] = tested on: subtilisin BPNʹ; conditions: ranking among a series of peptide chloromethyl ketones; cited from earlier work

| Molecule | Antiviral activity, as scored by 90% plaque reduction [1] | cytotoxicity first detected at a concentration [2] | inhibition of subtilisin BPNʹ [3] |
| --- | --- | --- | --- |
| CC(C)C[C@H](NC(=O)[C@H](CC(C)C)NC(=O)CNC(=O)[C@H](Cc1ccccc1)NC(=O)OCc1ccccc1)C(=O)CCl [Z-Phe-Gly-Leu-LeuCH₂Cl, N-carbobenzoxy-L-phenylalanyl-L-glycyl-L-leucyl-L-leucine chloromethyl ketone] (HELM PEPTIDE1{[O=C(OCc1ccccc1)[*:2]].F.G.L.L.[ClC[*:1]]}$$$$V2.0) | 1 µg/mL | about 15 µg/mL | – |
| acetyl-L-phenyl-alanyl-L-glycyl-L-alanyl-L-leucyl chloromethyl ketone (FGAL; HELM PEPTIDE1{[ac].F.G.A.L.[ClC[*:1]]}$$$$V2.0; SMILES CC(=O)N[C@@H](Cc1ccccc1)C(=O)NCC(=O)N[C@@H](C)C(=O)N[C@@H](CC(C)C)C(=O)CCl) [Ac-Phe-Gly-Ala-LeuCH₂Cl] | – | – | fastest inhibitor |
